Reference: PubChem BioAssay (NCI)
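A five-concentration, 48-hour dose response in 96-well plates underlies each endpoint, interpolated linearly between surrounding concentrations. TGI is the concentration that stops growth completely.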

Columns and labels:
Test in all cases: inhibition of tumour cell growth, NCI panel, 48 h
[1] = tested on: IGROV1 ovarian
[2] = tested on: SF-539 CNS
[3] = tested on: T-47D breast
[4] = tested on: UACC-62 melanoma
[5] = tested on: U251 CNS
[6] = tested on: HS 578T breast
[7] = tested on: NCI-H460 lung
[8] = tested on: CAKI-1 renal
[9] = tested on: OVCAR-4 ovarian
[10] = tested on: A498 renal
[11] = tested on: NCI-H23 lung
[12] = tested on: BT-549 breast
[13] = tested on: SR leukemia
[14] = tested on: M14 melanoma
[15] = tested on: A549 NSCLC
[16] = tested on: CCRF-CEM leukemia
[17] = tested on: LOX IMVI melanoma
[18] = tested on: MDA-MB-435
[19] = tested on: MALME-3M melanoma
[20] = tested on: MDA-MB-231 breast
[21] = tested on: UACC-257 melanoma
[22] = tested on: HCC-2998 colon
[23] = tested on: COLO 205 colon
[24] = tested on: RPMI-8226 leukemia
[25] = tested on: OVCAR-3 ovarian
[26] = tested on: SW-620 colon
[27] = tested on: DU-145 prostate
[28] = tested on: UO-31 renal
[29] = tested on: HCT-116 colon
[30] = tested on: SN12C renal
[31] = tested on: SK-MEL-28 melanoma
[32] = tested on: MCF7 breast
[33] = tested on: SF-295 CNS
[34] = tested on: 786-0 renal
[35] = tested on: K-562 leukemia
[36] = tested on: ACHN renal
[37] = tested on: MOLT-4 leukemia
[38] = tested on: KM12 colon
[39] = tested on: SK-OV-3 ovarian
[40] = tested on: NCI-H522 lung
[41] = tested on: OVCAR-8 ovarian
[42] = tested on: SNB-75 CNS
[43] = tested on: SK-MEL-2 melanoma
[44] = tested on: TK-10 renal
[45] = tested on: NCI/ADR-RES ovarian
[46] = tested on: SNB-19 CNS
[47] = tested on: HOP-92 NSCLC
[48] = tested on: HCT-15 colon
[49] = tested on: HL-60(TB) leukemia
[50] = tested on: SF-268 CNS
[51] = tested on: OVCAR-5 ovarian
[52] = tested on: EKVX NSCLC
[53] = tested on: MDA-N
[54] = tested on: HOP-62 NSCLC
[55] = tested on: HT29 colon
[56] = tested on: SK-MEL-5 melanoma
[57] = tested on: RXF 393 renal
[58] = tested on: NCI-H226 lung
[59] = tested on: PC-3 prostate

Question: Which results are given for `COC(=O)CCCC(=O)NC1=C(Nc2ccc(OC)cc2)C(=O)c2ccccc2C1=O`?
Answer: TGI [1]: 36.8 µM; TGI [2]: 36.1 µM; TGI [3]: > 100 µM; TGI [4]: 25.3 µM; TGI [5]: 80.9 µM; TGI [6]: 57.8 µM; TGI [7]: 36.6 µM; TGI [8]: > 100 µM; TGI [9]: 34.6 µM; TGI [10]: 84.4 µM; TGI [11]: 51.5 µM; TGI [12]: 35.4 µM; TGI [13]: > 100 µM; TGI [14]: 33.7 µM; TGI [15]: 42.7 µM; TGI [16]: 58.2 µM; TGI [17]: 92.8 µM; TGI [18]: 32.1 µM; TGI [19]: 13.5 µM; TGI [20]: 82.9 µM; TGI [21]: 36.1 µM; TGI [22]: > 100 µM; TGI [23]: > 100 µM; TGI [24]: > 100 µM; TGI [25]: 31.3 µM; TGI [26]: > 100 µM; TGI [27]: 31.7 µM; TGI [28]: > 100 µM; TGI [29]: 43.2 µM; TGI [30]: 74.2 µM; TGI [31]: 44.9 µM; TGI [32]: 35.4 µM; TGI [33]: 88.4 µM; TGI [34]: > 100 µM; TGI [35]: 70.1 µM; TGI [36]: 91.5 µM; TGI [37]: 60.4 µM; TGI [38]: > 100 µM; TGI [39]: 82.6 µM; TGI [40]: > 100 µM; TGI [41]: > 100 µM; TGI [42]: 65.6 µM; TGI [43]: 37.8 µM; TGI [44]: > 100 µM; TGI [45]: 71.1 µM; TGI [46]: > 100 µM; TGI [47]: > 100 µM; TGI [48]: 89 µM; TGI [49]: 54.5 µM; TGI [50]: > 100 µM; TGI [51]: 33.2 µM; TGI [52]: 51.3 µM; TGI [53]: 41.2 µM

Question: How did the TGI [1] turn out when `C/C(=N\O)c1ccc2cc(Br)c3ccccc3c2c1` was run?
Answer: > 100 µM

Question: What about the TGI [3] of the same compound?
Answer: 93.3 µM

Question: And the TGI [4]?
Answer: 47.2 µM

Question: What about the TGI [5] of the same compound?
Answer: 28.7 µM

Question: What about the TGI [6] of the same compound?
Answer: 88.2 µM

Question: What about the TGI [7] of the same compound?
Answer: 43.2 µM

Question: And the TGI [8]?
Answer: > 100 µM

Question: What about the TGI [9] of the same compound?
Answer: > 100 µM

Question: And the TGI [10]?
Answer: 35.4 µM

Question: And the TGI [11]?
Answer: 44.4 µM

Question: What about the TGI [12] of the same compound?
Answer: 64 µM

Question: What about the TGI [13] of the same compound?
Answer: > 100 µM

Question: And the TGI [14]?
Answer: 41.2 µM

Question: And the TGI [15]?
Answer: > 100 µM

Question: What about the TGI [16] of the same compound?
Answer: 61.1 µM

Question: What about the TGI [17] of the same compound?
Answer: 32.8 µM

Question: And the TGI [18]?
Answer: 69.9 µM

Question: And the TGI [19]?
Answer: 35.3 µM

Question: And the TGI [20]?
Answer: 32.1 µM

Question: What about the TGI [21] of the same compound?
Answer: 33.2 µM

Question: And the TGI [22]?
Answer: 29.7 µM

Question: What about the TGI [24] of the same compound?
Answer: 50.9 µM

Question: What about the TGI [25] of the same compound?
Answer: 33.3 µM

Question: What about the TGI [26] of the same compound?
Answer: > 100 µM

Question: What about the TGI [27] of the same compound?
Answer: > 100 µM

Question: And the TGI [28]?
Answer: 36.7 µM

Question: What about the TGI [29] of the same compound?
Answer: 25.8 µM

Question: And the TGI [30]?
Answer: 48.3 µM

Question: What about the TGI [31] of the same compound?
Answer: 42.6 µM

Question: What about the TGI [32] of the same compound?
Answer: 35.2 µM

Question: What about the TGI [33] of the same compound?
Answer: 37.5 µM

Question: And the TGI [54]?
Answer: 46.8 µM

Question: What about the TGI [34] of the same compound?
Answer: 43 µM

Question: What about the TGI [35] of the same compound?
Answer: > 100 µM

Question: And the TGI [36]?
Answer: > 100 µM

Question: What about the TGI [38] of the same compound?
Answer: 32.6 µM

Question: And the TGI [39]?
Answer: > 100 µM

Question: And the TGI [40]?
Answer: 33 µM

Question: What about the TGI [41] of the same compound?
Answer: 60.9 µM

Question: What about the TGI [42] of the same compound?
Answer: > 100 µM

Question: What about the TGI [43] of the same compound?
Answer: 32 µM

Question: What about the TGI [55] of the same compound?
Answer: 20.5 µM

Question: And the TGI [44]?
Answer: 39.8 µM

Question: What about the TGI [45] of the same compound?
Answer: 47.5 µM

Question: What about the TGI [46] of the same compound?
Answer: > 100 µM

Question: And the TGI [47]?
Answer: 46.6 µM

Question: What about the TGI [56] of the same compound?
Answer: 32 µM

Question: And the TGI [48]?
Answer: 34.7 µM

Question: And the TGI [49]?
Answer: 44.7 µM

Question: And the TGI [50]?
Answer: > 100 µM

Question: And the TGI [51]?
Answer: 25.8 µM

Question: And the TGI [52]?
Answer: 45.9 µM

Question: And the TGI [57]?
Answer: 31.9 µM

Question: What about the TGI [53] of the same compound?
Answer: 43.6 µM

Question: For `CCOC(=O)CCC(C(=O)OCC)n1nnc2ccc(Nc3c(C)[n+]([O-])c4ccc(Cl)cc4[n+]3[O-])cc21` (stereo not drawn), which TGI [1] is on record?
Answer: > 100 µM

Question: What about the TGI [2] of the same compound?
Answer: > 100 µM

Question: And the TGI [3]?
Answer: > 100 µM

Question: And the TGI [4]?
Answer: > 100 µM

Question: What about the TGI [5] of the same compound?
Answer: > 100 µM

Question: What about the TGI [58] of the same compound?
Answer: 83.7 µM

Question: What about the TGI [6] of the same compound?
Answer: > 100 µM

Question: And the TGI [7]?
Answer: > 100 µM

Question: And the TGI [8]?
Answer: > 100 µM

Question: What about the TGI [9] of the same compound?
Answer: > 100 µM

Question: And the TGI [10]?
Answer: > 100 µM

Question: What about the TGI [11] of the same compound?
Answer: > 100 µM

Question: And the TGI [12]?
Answer: > 100 µM

Question: What about the TGI [13] of the same compound?
Answer: > 100 µM

Question: And the TGI [14]?
Answer: > 100 µM

Question: And the TGI [15]?
Answer: > 100 µM

Question: And the TGI [16]?
Answer: > 100 µM

Question: What about the TGI [17] of the same compound?
Answer: > 100 µM

Question: And the TGI [18]?
Answer: > 100 µM

Question: And the TGI [19]?
Answer: > 100 µM

Question: And the TGI [21]?
Answer: 37.1 µM

Question: And the TGI [23]?
Answer: > 100 µM

Question: And the TGI [24]?
Answer: 88.3 µM

Question: What about the TGI [25] of the same compound?
Answer: > 100 µM

Question: And the TGI [26]?
Answer: > 100 µM

Question: And the TGI [27]?
Answer: > 100 µM

Question: And the TGI [28]?
Answer: > 100 µM

Question: And the TGI [29]?
Answer: > 100 µM

Question: What about the TGI [30] of the same compound?
Answer: > 100 µM

Question: What about the TGI [32] of the same compound?
Answer: 50.4 µM

Question: And the TGI [33]?
Answer: > 100 µM

Question: And the TGI [54]?
Answer: > 100 µM

Question: And the TGI [34]?
Answer: > 100 µM

Question: What about the TGI [35] of the same compound?
Answer: > 100 µM

Question: What about the TGI [36] of the same compound?
Answer: > 100 µM

Question: What about the TGI [59] of the same compound?
Answer: > 100 µM

Question: What about the TGI [37] of the same compound?
Answer: > 100 µM

Question: And the TGI [38]?
Answer: > 100 µM

Question: What about the TGI [39] of the same compound?
Answer: > 100 µM

Question: What about the TGI [40] of the same compound?
Answer: > 100 µM

Question: What about the TGI [41] of the same compound?
Answer: > 100 µM

Question: What about the TGI [42] of the same compound?
Answer: > 100 µM

Question: And the TGI [43]?
Answer: > 100 µM

Question: And the TGI [55]?
Answer: > 100 µM

Question: What about the TGI [44] of the same compound?
Answer: > 100 µM

Question: And the TGI [45]?
Answer: > 100 µM

Question: And the TGI [46]?
Answer: > 100 µM

Question: What about the TGI [47] of the same compound?
Answer: > 100 µM

Question: What about the TGI [56] of the same compound?
Answer: > 100 µM

Question: What about the TGI [48] of the same compound?
Answer: > 100 µM

Question: What about the TGI [49] of the same compound?
Answer: > 100 µM

Question: What about the TGI [50] of the same compound?
Answer: > 100 µM

Question: And the TGI [51]?
Answer: > 100 µM

Question: And the TGI [52]?
Answer: 69.3 µM

Question: What about the TGI [57] of the same compound?
Answer: > 100 µM

Question: What about the TGI [53] of the same compound?
Answer: > 100 µM
